Results from patent US20120251630A1, “REMISSION THERAPY OF CANCER WITH ISOFLAVONOIDS” (MARSHALL EDWARDS, INC., priority 2011, published 2012).

Assays:
Assay type in all cases: cell-based, human
[1] = system: CD44+/MYD88+ epithelial ovarian cancer (EOC) stem cells; experiment: Flow cytometry with MitoSox dye, mitochondrial superoxide; conditions: 10 μg/mL, designated times
Description: FIG. 1. EOC stem cells were treated with 10 μg/ml compound 1 at designated times. Flow cytometry analysis (FIG. 1) illustrates the increased levels of mitochondrial superoxide using MitoSox dye.
(§1) A panel of CD44+/MYD88+ epithelial ovarian cancer (EOC) stem cells was treated with compound 1 (10 μg/mL) at designated times. CD44+/MYD88+ ovarian cancer stem cells are isolated from either tumor tissue or ascites obtained from patients diagnosed with stage III/IV serous ovarian carcinoma. Mitochondrial function was assessed using the JC1 dye (Biovision Inc), MitoSox dye (Invitrogen), and ApoSENSOR ADP/ATP kit (Biovision Inc.). Protein levels were determined using Western blot analysis. […] The impact of compound 1 on energy production was examined by measuring ADP and ATP levels. […] The stem cells were treated with increasing with compound 1 (10 μg/mL) at times points shown.

[2] = system: CD44+/MYD88+ epithelial ovarian cancer (EOC) stem cells; experiment: ApoSENSOR ADP/ATP ratio assay kit, ATP and ADP levels
Description: FIG. 2 illustrates the levels of ATP and ADP measured at designated times using Apo-SENSOR ADP/ATP ratio assay kit. […] (p<0.0001 compared to control)
FIG. 7. Compound 1-induced loss of ATP leads to mTor inhibition. EOC stem cells were treated with compound 1 in the presence of 10% FBS. FIG. 7 illustrates the levels of ATP and ADP measured at designated times using ApoS-SENSOR ADP/ATP ratio assay kit. # p<0.001 compared to compound 1 alone.
as §1
(§2) EOC stem cells were treated with compound 1 in the presence of 10% fetal bovine serum (FBS).

[3] = system: EOC stem cells; experiment: Western blot analysis of protein levels (Cox-IV, pS6 kinase, ERK, AMPKα1)
Description: FIG. 3. Western blot analysis illustrates a decrease in Cox-IV and pS6 kinase, and activation of ERK and AMPKα1 (C).
FIG. 4. EOC stem cells were treated with compound 1 in the presence or absence of the ROS scavenger, MnTBAP. Western blot analysis (FIG. 2) illustrates the effect of MnTBAP pretreatment on mitochondrial ERK, pS6 and β-actin activation. […] Compound 1-induced ROS production leads to ERK activation and loss of mitochondrial membrane potential (MMP).
FIG. 8. Western blot analysis illustrates that treatment of ovarian cancer stem cells with compound 1 in the presence of FBS was able to prevent compound 1 induced decrease in pS6 kinase.
as §1
(§3) Inhibitory studies were done using the specific MEK inhibitor U0126 (10 μM) or the ROS scavenger, MnTBAP (500 μM). EOC stem cells were treated with compound 1 in the presence or absence of the ROS scavenger, MnTBAP (Alexis Biochemicals). […] (FIG. 4) EOC stem cells were treated with compound 1 in the presence or absence of the MEK inhibitor, U0126 (Sigma Aldrich). EOC stem cells were pre-treated with U0126 (10 μM) for 1 hour before treatment with compound 1. Flow cytometry analysis using JC1 green fluorescence illustrates the effect of compound 1 on mitochondrial membrane potential. Pretreatment with U0126 reduced the percentage of cells that lost mitochondrial membrane potential (59% vs 23% for compound 1 along and compound 1 with U0126, respectively) (FIG. 5). The mitochondrial fractions of cells treated with compound 1 in the presence or absence of U0126 were analyzed. […] (FIG. 6)
as §2

[4] = system: EOC stem cells; experiment: Flow cytometry with JC1 dye, mitochondrial membrane potential
Description: FIG. 5. EOC stem cells were treated with compound 1 in the presence or absence of the MEK inhibitor, U0126. Flow cytometry analysis using JC1 dye illustrates the effect on mitochondrial membrane potential (MMP). FIG. 5 illustrates that inhibition of ERK with U0126 is able to reverse the effect of compound 1 on MMP.
as §1
Inhibitory studies were done using the specific MEK inhibitor U0126 (10 μM) or the ROS scavenger, MnTBAP (500 μM). […] Flow cytometry analysis using JC1 green fluorescence illustrates the effect of compound 1 on mitochondrial membrane potential. […] The mitochondrial fractions of cells treated with compound 1 in the presence or absence of U0126 were analyzed. […]

[5] = system: EOC stem cells; experiment: Western blot analysis of mitochondrial fractions, Bax
Description: FIG. 6. Western blot analysis using mitochondrial fractions illustrates the effect on mitochondrial Bax. U0126 inhibited compound 1-induced loss of mitochondrial membrane potential and mitochondrial translocation of Bax (member of the proapoptotic Bcl2 family).
as §3

[6] = system: ovarian cancer stem cell; experiment: Mitochondrial function assessment (JC1 dye, MitoSox dye, ApoSENSOR ADP/ATP kit); conditions: overall conclusion of Example 1
Description: as §1

[7] = in the presence of 10% fetal bovine serum (FBS)

**Q.** `COc1ccc(C2c3ccc(O)c(C)c3OCC2c2ccc(O)cc2)cc1` (stereo not drawn) [compound 1, 3-(4-hydroxyphenyl)-4-(4-methoxyphenyl)-8-methylchroman-7-ol] was tested. Which “mitochondrial superoxide (MitoSox fluorescence)” value [1] did it give?
**A.** Its value is “increase in mitochondrial superoxide”.

**Q.** And the ADP level ([2]; 10 μg/mL, after 2 and 4 hours of treatment)?
**A.** The ADP level was “accumulated ADP”.

**Q.** And the ATP production ([2]; 10 μg/mL, after 2 and 4 hours of treatment, p<0.0001 compared to control)?
**A.** Its ATP production is “decrease in ATP production”.

**Q.** And the ATP loss [2, 7]?
**A.** Its ATP loss is “Abrogation of ATP loss”.

**Q.** What about the “Cox-IV protein level (Western blot)” value ([3]; 10 μg/mL) of the same compound?
**A.** The value was “decreases activation”.

**Q.** And the “activation of AMPKα1 (Western blot)” value ([3]; 10 μg/mL)?
**A.** The value was “increases activation”.

**Q.** What about the “activation of ERK (Western blot)” value ([3]; 10 μg/mL) of the same compound?
**A.** The value was “increases activation”.

**Q.** And the “activation of pS6 kinase (Western blot)” value ([3]; 10 μg/mL)?
**A.** The value was “decreases activation”.

**Q.** And the “compound 1-induced decrease in pS6k” value [3, 7]?
**A.** Its value is “prevented compound 1-induced decrease in pS6k”.

**Q.** And the “compound 1-induced activation of mitochondrial ERK” value ([3]; in the presence of ROS scavenger MnTBAP (500 μM))?
**A.** Its value is “MnTBAP inhibited compound 1-induced activation of mitochondrial ERK”.

**Q.** And the “percentage of cells that lost mitochondrial membrane potential” value ([4]; compound 1 alone)?
**A.** Its value is 59%.

**Q.** And the “percentage of cells that lost mitochondrial membrane potential” value ([4]; pre-treated with MEK inhibitor U0126 (10 μM) for 1 hour before compound 1)?
**A.** Its value is 23%.

**Q.** And the “mitochondrial Bax (proapoptotic Bcl2 family member)” value ([5]; compound 1 alone, mitochondrial fractions)?
**A.** Its value is “upregulates”.

**Q.** What about the “compound 1-induced upregulation of mitochondrial Bax” value ([5]; pre-treatment with U0126 followed by compound 1) of the same compound?
**A.** The value was “prevented compound 1-induced upregulation”.

**Q.** What about the mitochondrial function [6] of the same compound?
**A.** The mitochondrial function was “significantly inhibits mitochondrial function”.
